Values quoted from earlier work as cited in patent US12472160B2, “Modified-release tiopronin compositions, kits and methods for treating cystinuria and related disorders” (ALTIBIO, INC., priority 2017, dated 2025).

How the values were obtained:
[1] = cited from earlier work
[2] = cited from earlier work; remark: listed apart in the source

CC(C)(S)[C@@H](N)C(=O)O [D-penicillamine]
solubility of di-sulfide complex relative to cystine [1]: 50 times
patients with severe side effects limiting use / who cannot tolerate the drug ([2]; human, in vivo): 50-70%
bioavailability ([2]; patients with malabsorption states, presence of antacids, or after a large meal): dramatically decreases
